Reference: US5925369A, “Bis alkanoyl esters of carnitine having bactericidal, fungicidal and antiprotozoal activity” (priority 1996, dated 1999)
Read-outs that look alike come from different tables or passages of the source.

How the values were obtained:
Format in all cases: cell-based
C. tropicalis = assay: MIC on yeast-like strains; settings: Candida tropicalis; C. tropicalis ISS 1, lab collection; read-out: Minimal Inhibitory Concentration
Procedure: (§1) Overnight yeast cultures in Sabouraud broth are appropriately washed and diluted in Yeast Nitrogen Base supplemented with asparagine and glucose (Y.N.B.s.) to yield approximately 5.0×10^4 CFU/ml in microtiter wells. Substance dilutions (0.3 log) in Y.N.B.s. are added to these suspensions to a final concentration range from 0.19 to 100 mcg/ml. Microtiter plates are then incubated at 35° C. for 24-48 hours (See PFALLER M., RINALDI M. G., […] J. M., BARTLETT M. S., BODY B. A., ESPINEL-INGROFF A., FROMTLING R. A., HALL G. S., HUGHES G. E., ODDS F. C., SUGAR A. M., Collaborative investigator of variables in susceptibility testing of yeasts, Ant. Agent and Chemoth., 34, 9:1648-1656, 1990. COOK R., McINTYRE K. A., […] J. M., Effects of incubation temperature, inoculum size, and medium on agreement of macro and microdilution broth susceptibility test, results for yeasts, Ant. Agent and Chemoth., 34, 8:1542-1545, 1990. […] E., PAETZNICK V., BODEY G. P., Fluconazole susceptibility testing of "Candida albicans" microtiter method that is indipendent of inoculum size, temperature, and time of reaching, Ant. Agent and Chemoth., 35, 8:1641-1646, 1991).

Candida albicans = assay: MIC on yeast-like strains; settings: read-out: Minimal Inhibitory Concentration
Procedure: as §1

C. krusei = assay: MIC on yeast-like strains; settings: Pichia kudriavzevii; C. krusei ISS 1, lab collection; read-out: Minimal Inhibitory Concentration
Procedure: as §1

yeast-like strains = assay: MIC on yeast-like strains (all lab collection strains); settings: 5 strains
Procedure: as §1

Staph. sp. = assay: MIC on Gram positive bacteria; settings: Staph. sp. SG1 II, clinical isolate; read-out: Minimal Inhibitory Concentration
Procedure: (§2) Bacterial suspensions are prepared from an overnight culture in Mueller-Hinton broth and are adjusted, in the same medium, to a final concentration of 5.0×10^4 cells/ml in each well of a 96-well microtiter plate. Substance dilutions (0.3 log) in Mueller-Hinton broth are added to the suspensions in order to have a range of final concentrations from 0.19 to 100 mcg/ml.
(§3) Microtiters are then incubated at 37° C. for 18 hours. (See L. D. THRUPP, Susceptibility testing of antibiotics in liquid media, in: Antibiotics in laboratory medicine. V. LORIAN Ed., II edition, 4, 93-150, Williams & Wilkins, Baltimora, Md. 21202 U.S.A.).

Strept. sp. = assay: MIC on Gram positive bacteria; settings: Strept. sp. SG 7 II, clinical isolate; read-out: Minimal Inhibitory Concentration
Procedure: as §2, §3

Staph. capitis = assay: MIC on Gram positive bacteria; settings: Staphylococcus capitis; Staph. capitis IDI 3502, clinical isolate (pustule, scalp); read-out: Minimal Inhibitory Concentration
Procedure: as §2, §3

Staph. warneri = assay: MIC on Gram positive bacteria; settings: Staphylococcus warneri; Staph. warneri IDI 3482, clinical isolate (suppurative wound); read-out: Minimal Inhibitory Concentration
Procedure: as §2, §3

B. pumilus = assay: MIC on Gram positive bacteria; settings: Bacillus pumilus; B. pumilus CN 607, lab collection; read-out: Minimal Inhibitory Concentration
Procedure: as §2, §3

[1] = test system: S. aureus (Staph. aureus); assay: MIC on Gram positive bacteria; settings: Staphylococcus aureus, read-out: Minimal Inhibitory Concentration
Procedure: as §2, §3

Staph. epider. = assay: MIC on Gram positive bacteria; settings: Staph. epider. IDI 3482, clinical isolate (suppurative wound); read-out: Minimal Inhibitory Concentration
Procedure: as §2, §3

[2] = test system: S. faecalis (Strept. faecalis); assay: MIC on Gram positive bacteria; settings: Enterococcus faecalis, read-out: Minimal Inhibitory Concentration
Procedure: as §2, §3

Micrococcus sp. = assay: MIC on Gram positive bacteria; settings: Micrococcus sp. IDI 3502, clinical isolate (pustule, scalp); read-out: Minimal Inhibitory Concentration
Procedure: as §2, §3

S. typhimurium = assay: MIC on Gram negative bacteria; settings: Salmonella enterica; S. typhimurium DS, lab collection; read-out: Minimal Inhibitory Concentration
Procedure: as §2, §3

K. oxytoca = assay: MIC on Gram negative bacteria; settings: Klebsiella oxytoca; K. oxytoca 552, lab collection; read-out: Minimal Inhibitory Concentration
Procedure: as §2, §3

Pseudomonas aeruginosa = assay: MIC on Gram negative bacteria; settings: Pseudomonas aeruginosa IDI 3530, clinical isolate (ulcer); read-out: Minimal Inhibitory Concentration
Procedure: as §2, §3

E. aerogenes = assay: MIC on Gram negative bacteria; settings: Klebsiella aerogenes; E. aerogenes UM, lab collection; read-out: Minimal Inhibitory Concentration
Procedure: as §2, §3

[3] = test system: E. coli (Escherichia coli); assay: MIC on Gram negative bacteria; settings: read-out: Minimal Inhibitory Concentration
Procedure: as §2, §3

P. vulgaris = assay: MIC on Gram negative bacteria; settings: Proteus vulgaris; P. vulgaris UM, lab collection; read-out: Minimal Inhibitory Concentration
Procedure: as §2, §3

Proteus sp. = assay: MIC on Gram negative bacteria; settings: Proteus sp. SG 9 II, clinical isolate; read-out: Minimal Inhibitory Concentration
Procedure: as §2, §3

Klebsiella pneumoniae = assay: MIC on Gram negative bacteria; settings: Klebsiella pneumoniae SG 5 II, clinical isolate; read-out: Minimal Inhibitory Concentration
Procedure: as §2, §3

Enterobacter cloacae = assay: MIC on Gram negative bacteria; settings: Enterobacter cloacae SG 3 II, clinical isolate; read-out: Minimal Inhibitory Concentration
Procedure: as §2, §3

[4] = C. albicans 562, lab collection
[5] = C. albicans ISS 1, lab collection
[6] = Candida albicans 1786/94, clinical isolate
[7] = Candida albicans IDI D 0101, clinical isolate (eczema, internatal; prior Versus)
[8] = Candida albicans IDI D 0297, clinical isolate (vulvar vaginitis; prior Pevaryl)
[9] = Candida albicans IDI D 1046, clinical isolate (glossitis; prior Daktarin)
[10] = Candida albicans IDI D 1056, clinical isolate
[11] = Candida albicans IDI D 1088, clinical isolate
[12] = Candida albicans IDI D 3575, clinical isolate
[13] = Candida albicans SG 2 III, clinical isolate (vaginitis)
[14] = Candida albicans SG 7 I, clinical isolate (Tinea unguis, hands)
[15] = Candida albicans SG 14 III, clinical isolate (vaginitis)
[16] = S. aureus 306 MR, lab collection
[17] = Staph. aureus IDI 3530, clinical isolate (ulcer)
[18] = Staph. aureus IDI 3593, clinical isolate (ulcer)
[19] = Staph. aureus SG II, clinical isolate
[20] = S. faecalis 501, lab collection
[21] = S. faecalis 509, lab collection
[22] = Strept. faecalis IDI 3580, clinical isolate (ulcer)
[23] = Escherichia coli SG 4 II, clinical isolate

CCCCCCCCCCCOC(=O)C[C@H](C[N+](C)(C)C)OC(=O)CC(C)C [ST 1103, isovaleryl L-carnitine undecyl ester methanesulfonate, reference compound]
MIC (C. tropicalis): 3.12 µg/mL
MIC (Candida albicans; [4]): 3.12 µg/mL
MIC (Candida albicans; [5]): 1.56 µg/mL
MIC (Candida albicans; [6]): 6.25 µg/mL
MIC (Candida albicans; [7]): 6.25 µg/mL
MIC (Candida albicans; [8]): 3.12 µg/mL
MIC (Candida albicans; [9]): 3.12 µg/mL
MIC (Candida albicans; [10]): 3.12 µg/mL
MIC (Candida albicans; [11]): 3.12 µg/mL
MIC (Candida albicans; [12]): 6.25 µg/mL
MIC (Candida albicans; [13]): 6.25 µg/mL
MIC (Candida albicans; [14]): 3.12 µg/mL
MIC (Candida albicans; [15]): 6.25 µg/mL
MIC (C. krusei): 3.12 µg/mL
MIC (yeast-like strains): 2.8 µg/mL
MIC (Staph. sp.): 6.25 µg/mL
MIC (Strept. sp.): 3.12 µg/mL
MIC (Staph. capitis): 3.12 µg/mL
MIC (Staph. warneri): 6.25 µg/mL
MIC (B. pumilus): 3.12 µg/mL
MIC ([1]; S. aureus 303, lab collection): 6.25 µg/mL
MIC [1, 16]: 6.25 µg/mL
MIC [1, 17]: 3.12 µg/mL
MIC [1, 18]: 3.12 µg/mL
MIC [1, 19]: 3.12 µg/mL
MIC (Staph. epider.): 1.56 µg/mL
MIC [2, 20]: 3.12 µg/mL
MIC [2, 21]: 1.56 µg/mL
MIC [2, 22]: 6.25 µg/mL
MIC (Micrococcus sp.): 3.12 µg/mL
MIC (S. typhimurium): 25 µg/mL
MIC (K. oxytoca): 12.5 µg/mL
MIC (Pseudomonas aeruginosa): 25 µg/mL
MIC (E. aerogenes): 25 µg/mL
MIC ([3]; E. coli 92 F, lab collection): 25 µg/mL
MIC [3, 23]: 25 µg/mL
MIC (P. vulgaris): 50 µg/mL
MIC (Proteus sp.): 50 µg/mL
MIC (Klebsiella pneumoniae): 50 µg/mL
MIC (Enterobacter cloacae): 25 µg/mL

CCCCCCCCCCC(=O)O[C@H](CC(=O)OCc1ccc(COC(=O)C[C@H](C[N+](C)(C)C)OC(=O)CCCCCCCCCC)cc1)C[N+](C)(C)C [ST 1226, bis(undecanoyl L-carnitine chloride)p-xylilene diester]
MIC (C. tropicalis): 1.56 µg/mL
MIC (Candida albicans; [4]): 3.12 µg/mL
MIC (Candida albicans; [5]): 3.12 µg/mL
MIC (Candida albicans; [6]): 3.12 µg/mL
MIC (Candida albicans; [7]): 1.56 µg/mL
MIC (Candida albicans; [8]): 3.12 µg/mL
MIC (Candida albicans; [9]): 3.12 µg/mL
MIC (Candida albicans; [10]): 1.56 µg/mL
MIC (Candida albicans; [11]): 3.12 µg/mL
MIC (Candida albicans; [12]): 3.12 µg/mL
MIC (Candida albicans; [13]): 1.56 µg/mL
MIC (Candida albicans; [14]): 3.12 µg/mL
MIC (Candida albicans; [15]): 1.56 µg/mL
MIC (C. krusei): 3.12 µg/mL
MIC (yeast-like strains): 2.49 µg/mL
MIC (Staph. sp.): 3.12 µg/mL
MIC (Strept. sp.): 3.12 µg/mL
MIC (Staph. capitis): 1.56 µg/mL
MIC (Staph. warneri): 3.12 µg/mL
MIC (B. pumilus): 1.56 µg/mL
MIC ([1]; S. aureus 303, lab collection): 3.12 µg/mL
MIC [1, 16]: 3.12 µg/mL
MIC [1, 17]: 3.12 µg/mL
MIC [1, 18]: 3.12 µg/mL
MIC [1, 19]: 3.12 µg/mL
MIC (Staph. epider.): 3.12 µg/mL
MIC [2, 20]: 3.12 µg/mL
MIC [2, 21]: 1.56 µg/mL
MIC [2, 22]: 6.25 µg/mL
MIC (Micrococcus sp.): 1.56 µg/mL
MIC (S. typhimurium): 25 µg/mL
MIC (K. oxytoca): 25 µg/mL
MIC (Pseudomonas aeruginosa): 50 µg/mL
MIC (E. aerogenes): 6.25 µg/mL
MIC ([3]; E. coli 92 F, lab collection): 25 µg/mL
MIC [3, 23]: 12.5 µg/mL
MIC (P. vulgaris): 50 µg/mL
MIC (Proteus sp.): 50 µg/mL
MIC (Klebsiella pneumoniae): 50 µg/mL
MIC (Enterobacter cloacae): 12.5 µg/mL
